≈ marks a conversion by molar mass, not a printed value. Like-named read-outs stand apart in the source and are kept apart here.
Tests used:
[1] = test system: Moraxella catarrhalis/β-lactamase positive A25409; test: MIC by conventional serial broth dilution assay; assay type: cell-based
[2] = test system: Haemophilus influenzae/β-lactamase negative A20183; test: MIC by conventional serial broth dilution assay; assay type: cell-based; settings: β-lactamase negative, read-out: MIC
[3] = test system: Streptococcus pneumoniae A9585; test: MIC by conventional serial broth dilution assay; assay type: cell-based
[4] = test system: Staphylococcus haemolyticus A27298; test: MIC by conventional serial broth dilution assay; assay type: cell-based
[5] = test system: Gram-positive bacteria; test: in vitro activity against Gram-positive bacteria; assay type: cell-based; settings: e.g. multiple drug resistant Enterococcus faecium
[6] = test system: Enterococcus faecalis A27519; test: MIC by conventional serial broth dilution assay; assay type: cell-based
[7] = test system: Enterococcus faecium A24885; test: MIC by conventional serial broth dilution assay; assay type: cell-based
[8] = test system: Streptococcus pneumoniae/penicillin resistant A28272; test: MIC by conventional serial broth dilution assay; assay type: cell-based
[9] = test system: Enterococcus faecalis A20688; test: MIC by conventional serial broth dilution assay; assay type: cell-based
[10] = test system: Moraxella catarrhalis/β-lactamase positive A22344; test: MIC by conventional serial broth dilution assay; assay type: cell-based
[11] = test system: Haemophilus influenzae/β-lactamase positive A21515; test: MIC by conventional serial broth dilution assay; assay type: cell-based; settings: β-lactamase positive, read-out: MIC
[12] = test system: Staphylococcus epidermidis A24548; test: MIC by conventional serial broth dilution assay; assay type: cell-based
[13] = test system: Staphylococcus aureus/β-lactamase positive A15090; test: MIC by conventional serial broth dilution assay; assay type: cell-based
[14] = test system: Enterococcus avium A27456; test: MIC by conventional serial broth dilution assay; assay type: cell-based
[15] = test system: Streptococcus pneumoniae/penicillin intermediate A27881; test: MIC by conventional serial broth dilution assay; assay type: cell-based
[16] = test system: Haemophilus influenzae/β-lactamase negative A20191; test: MIC by conventional serial broth dilution assay; assay type: cell-based; settings: β-lactamase negative, read-out: MIC
[17] = test system: Staphylococcus aureus/QC/ATCC#29213 A24407; test: MIC by conventional serial broth dilution assay; assay type: cell-based
[18] = test system: Staphylococcus aureus/homo methicillin resistant A27223; test: MIC by conventional serial broth dilution assay; assay type: cell-based
[19] = test system: Enterococcus faecium/thiostrepton resistant (10 ug/ml) SC15829; test: MIC by conventional serial broth dilution assay; assay type: cell-based
[20] = test system: Staphylococcus aureus/hetero methicillin resistant A27218; test: MIC by conventional serial broth dilution assay; assay type: cell-based
[21] = test system: Salmonella enteritidis A9531; test: MIC by conventional serial broth dilution assay; assay type: cell-based; settings: Salmonella enterica
[22] = test system: Salmonella/WT A27207; test: MIC by conventional serial broth dilution assay; assay type: cell-based
[23] = test system: Escherichia coli A22292; test: MIC by conventional serial broth dilution assay; assay type: cell-based
[24] = test system: Micrococcus luteus A9852; test: MIC by conventional serial broth dilution assay; assay type: cell-based
[25] = test system: Staphylococcus aureus A9537; test: MIC by conventional serial broth dilution assay; assay type: cell-based
[26] = test system: Escherichia coli A15119; test: MIC by conventional serial broth dilution assay; assay type: cell-based
[27] = test system: Escherichia coli/AcrA::Kan A28901; test: MIC by conventional serial broth dilution assay; assay type: cell-based
[28] = test system: Salmonella/RE A27208; test: MIC by conventional serial broth dilution assay; assay type: cell-based
[29] = test system: Bacillus subtilis A9506A; test: MIC by conventional serial broth dilution assay; assay type: cell-based
[30] = test system: Streptococcus pyogenes A9604; test: MIC by conventional serial broth dilution assay; assay type: cell-based
[31] = test system: Enterococcus faecium strain A28152; test: antibiotic susceptibility of the MREF strain; assay type: cell-based; settings: strain description; source not stated
[32] = test system: Gram-positive bacteria; settings: reported for known thiazolyl peptides; cited from earlier work
[33] = β-lactamase positive, read-out: MIC

C=C(NC(=O)c1csc(-c2nc3c(cc2O)-c2nc(cs2)C(=O)NC(C(C)O)C(=O)NC(=C(C)OC)c2nc(cs2)C(=O)NC2c4nc(cs4)C(=O)NC(COC(=O)c4c5c6c(cccc6n4O)COC(=O)C(O)C2OC5)c2nc-3cs2)n1)C(N)=O (centres unmarked) [Nocathiacin III]
MIC [1, 33]: 0.06 µg/mL (≈ 0.0474 µM)
MIC [2]: > 64 µg/mL
MIC ([3]; read-out: MIC): ≤ 0.002 µg/mL
MIC ([4]; read-out: MIC): 0.007 µg/mL (≈ 0.00553 µM)
inhibitory activity against Gram-positive bacteria [5]: inhibitory activity at the nanomolar level
MIC ([6]; read-out: MIC): 0.03 µg/mL (≈ 0.0237 µM)
MIC ([7]; read-out: MIC): 0.03 µg/mL (≈ 0.0237 µM)
MIC ([8]; penicillin resistant, read-out: MIC): ≤ 0.002 µg/mL
MIC ([9]; A20688, + 50% calf serum, read-out: MIC): 0.25 µg/mL
MIC ([9]; A20688, read-out: MIC): 0.03 µg/mL (≈ 0.0237 µM)
MIC [10, 33]: 0.06 µg/mL (≈ 0.0474 µM)
MIC [11]: > 64 µg/mL
MIC ([12]; read-out: MIC): 0.007 µg/mL (≈ 0.00553 µM)
MIC ([13]; + 50% calf serum, read-out: MIC): 0.03 µg/mL
MIC [13, 33]: 0.007 µg/mL (≈ 0.00553 µM)
MIC ([14]; read-out: MIC): 0.03 µg/mL (≈ 0.0237 µM)
MIC ([15]; penicillin intermediate, read-out: MIC): ≤ 0.002 µg/mL
MIC [16]: > 64 µg/mL
MIC ([17]; ATCC29213, QC/ATCC#29213, read-out: MIC): 0.007 µg/mL (≈ 0.00553 µM)
MIC ([18]; homo methicillin resistant, read-out: MIC): 0.007 µg/mL (≈ 0.00553 µM)

C=C(NC(=O)c1csc(-c2nc3c(cc2O)-c2nc(cs2)C(=O)NC(C(C)O)C(=O)NC(=C(C)OC)c2nc(cs2)C(=O)NC2c4nc(cs4)C(=O)NC(COC(=O)c4[nH]c5cccc6c5c4COC2C(OC2CC(C)(O)C(N(C)C)C(C)O2)C(=O)OC6)c2nc-3cs2)n1)C(N)=O (centres unmarked) [Nocathiacin II]
MIC [1]: 0.125 µg/mL (≈ 0.0879 µM)
MIC [3]: 0.015 µg/mL (≈ 0.0106 µM)
MIC [4]: 0.25 µg/mL (≈ 0.176 µM)
inhibitory activity against Gram-positive bacteria [5]: inhibitory activity at the nanomolar level
MIC [19]: 0.5 µg/mL (≈ 0.352 µM)
MIC [6]: 0.5 µg/mL (≈ 0.352 µM)
MIC [7]: 0.5 µg/mL (≈ 0.352 µM)
MIC [8]: 0.015 µg/mL (≈ 0.0106 µM)
MIC ([20]; + 50% calf serum): 0.5 µg/mL
MIC ([20]; hetero methicillin resistant): 0.5 µg/mL (≈ 0.352 µM)
MIC ([9]; A20688): 0.5 µg/mL (≈ 0.352 µM)
MIC ([9]; A20688, + 50% calf serum): 0.5 µg/mL
MIC [10]: 0.125 µg/mL (≈ 0.0879 µM)
MIC [21]: > 128 µg/mL
MIC [22]: > 128 µg/mL
MIC [23]: > 128 µg/mL
MIC [12]: 0.125 µg/mL (≈ 0.0879 µM)
MIC ([13]; + 50% calf serum): 0.5 µg/mL
MIC ([13]; β-lactamase positive): 0.5 µg/mL (≈ 0.352 µM)
MIC [24]: 0.125 µg/mL (≈ 0.0879 µM)
MIC [25]: 0.06 µg/mL (≈ 0.0422 µM)
MIC [26]: > 128 µg/mL
MIC [27]: > 128 µg/mL
MIC [14]: 0.5 µg/mL (≈ 0.352 µM)
MIC [28]: > 128 µg/mL
MIC [29]: 0.125 µg/mL (≈ 0.0879 µM)
MIC [15]: 0.015 µg/mL (≈ 0.0106 µM)
MIC [30]: 0.125 µg/mL (≈ 0.0879 µM)
MIC ([17]; ATCC29213): 0.5 µg/mL (≈ 0.352 µM)
MIC ([18]; + 50% calf serum): 0.125 µg/mL
MIC ([18]; homo methicillin resistant): 0.125 µg/mL (≈ 0.0879 µM)

O=C(N[C@H](CO)[C@H](O)c1ccc([N+](=O)[O-])cc1)C(Cl)Cl [chloramphenicol]
resistance/sensitivity of E. faecium strain A28152 to the antibiotic [31]: sensitive

O=C(O)c1cn(C2CC2)c2cc(N3CCNCC3)c(F)cc2c1=O [ciprofloxacin]
resistance/sensitivity of E. faecium strain A28152 to the antibiotic [31]: resistant

CCC[C@@H]1C[C@@H](C(=O)N[C@@H]([C@H]2O[C@H](SC)[C@H](O)[C@@H](O)[C@H]2O)[C@H](C)Cl)N(C)C1 [clindamycin]
resistance/sensitivity of E. faecium strain A28152 to the antibiotic [31]: resistant

CC[C@H]1OC(=O)[C@H](C)[C@@H](O[C@H]2C[C@@](C)(OC)[C@@H](O)[C@H](C)O2)[C@H](C)[C@@H](O[C@@H]2O[C@H](C)C[C@H](N(C)C)[C@H]2O)[C@](C)(O)C[C@@H](C)C(=O)[C@H](C)[C@@H](O)[C@]1(C)O [erythromycin]
resistance/sensitivity of E. faecium strain A28152 to the antibiotic [31]: resistant

CO/C(C)=C1/NC(=O)[C@H]([C@@H](C)O)NC(=O)c2csc(n2)-c2cc(O)c(-c3nc(C(N)=O)cs3)nc2-c2csc(n2)[C@@H]2CSC(=O)c3[nH]c4cccc5c4c3CO[C@@H](C(NC(=O)c3csc1n3)c1nc(cs1)C(=O)N2)[C@@H](O[C@H]1C[C@](C)(O)[C@H](N(C)C)[C@H](C)O1)C(=O)OC5 [glycothiohexide-α]
antimicrobial activity against Gram-positive bacteria in vitro [32]: potent antimicrobial activity

C=C(NC(=O)c1csc(-c2nc3c(cc2O)-c2nc(cs2)C(=O)NC(C(C)O)C(=O)N/C(=C\C)c2nc(cs2)C(=O)NC2CC(O)C(=O)OCc4cccc5[nH]c(c(C)c45)C(=O)SCC(NC(=O)c4csc2n4)c2nc-3cs2)n1)C(N)=O (centres unmarked) [nosiheptide]
antimicrobial activity against Gram-positive bacteria in vitro [32]: potent antimicrobial activity

CC1(C)S[C@@H]2[C@H](NC(=O)Cc3ccccc3)C(=O)N2[C@H]1C(=O)O [penicillin G]
resistance/sensitivity of E. faecium strain A28152 to the antibiotic [31]: resistant

CO[C@H]1/C=C/O[C@@]2(C)Oc3c(C)c(O)c4c(O)c(c(/C=N/N5CCN(C)CC5)c(O)c4c3C2=O)NC(=O)/C(C)=C\C=C\[C@H](C)[C@H](O)[C@@H](C)[C@@H](O)[C@@H](C)[C@H](OC(C)=O)[C@@H]1C [rifampin]
resistance/sensitivity of E. faecium strain A28152 to the antibiotic [31]: resistant

[H]/N=C(/N)N[C@H]1[C@H](O)[C@@H](O)[C@H](O[C@@H]2O[C@@H](C)[C@](O)(C=O)[C@H]2O[C@@H]2O[C@@H](CO)[C@H](O)[C@@H](O)[C@@H]2NC)[C@@H](N/C(N)=N\[H])[C@@H]1O [streptomycin]
resistance/sensitivity of E. faecium strain A28152 to the antibiotic [31]: resistant

CN(C)C1C(=O)C(C(N)=O)=C(O)C2(O)C(=O)C3=C(O)c4c(O)cccc4C(C)(O)C3CC12 (centres unmarked) [tetracycline]
resistance/sensitivity of E. faecium strain A28152 to the antibiotic [31]: resistant

C=C(NC(=O)C(=C)NC(=O)c1csc(C2=N[C@@H]3c4csc(n4)[C@H]4NC(=O)c5csc(n5)[C@H]([C@](C)(O)[C@@H](C)O)NC(=O)[C@H]5CSC(=N5)/C(=C/C)NC(=O)[C@H]([C@@H](C)O)NC(=O)c5csc(n5)[C@]3(CC2)NC(=O)[C@H](C)NC(=O)C(=C)NC(=O)[C@H](C)NC(=O)[C@H]([C@@H](C)CC)N[C@@H]2C=Cc3c([C@H](C)O)cc(nc3[C@H]2O)C(=O)O[C@@H]4C)n1)C(N)=O [thiostrepton]
antimicrobial activity against Gram-positive bacteria in vitro [32]: potent antimicrobial activity

CN[C@H](CC(C)C)C(=O)N[C@H]1C(=O)N[C@@H](CC(N)=O)C(=O)N[C@H]2C(=O)N[C@H]3C(=O)N[C@H](C(=O)N[C@H](C(=O)O)c4cc(O)cc(O)c4-c4cc3ccc4O)[C@H](O)c3ccc(c(Cl)c3)Oc3cc2cc(c3O[C@@H]2O[C@H](CO)[C@@H](O)[C@H](O)[C@H]2O[C@H]2C[C@](C)(N)[C@H](O)[C@H](C)O2)Oc2ccc(cc2Cl)[C@H]1O [vancomycin]
resistance/sensitivity of E. faecium strain A28152 to the antibiotic [31]: resistant

gentamicin
resistance/sensitivity of E. faecium strain A28152 to the antibiotic [31]: resistant

teicoplanin
resistance/sensitivity of E. faecium strain A28152 to the antibiotic [31]: resistant

Source: patent publication US6218398A, “Nocathiacin antibiotics” (Bristol-Myers Squibb Company, priority 1999, dated 2001)
